Data published in patent US11744830B2, “Ameliorative agent for cytokine release syndrome and so on” (TORII PHARMACEUTICAL CO., LTD., priority 2018, dated 2023).
Counter-ions that a name gives are not always drawn.

Key:
[1] = test system: IL-18 production from LPS-pretreated CD14^+ cells; assay: ATP stimulation-induced IL-18 production from LPS-pretreated CD14^+ cells; assay type: cell-based, human; conditions: for IC50: Homo sapiens, CD14^+ cells (LPS-pretreated), ATP 5 mM
Experimental: Cryopreserved PBMCs were quickly thawed in a 37° C. thermostat and added to a tube containing medium. After centrifugation (at room temperature at 300 g for 10 minutes) to remove the supernatant, the cells were suspended again in the medium, followed by counting the number of viable cells. The cell suspension was centrifuged (at room temperature at 300 g for 10 minutes) to remove the supernatant, followed by addition of MACS Buffer to suspend the cells, to which Human CD14 MicroBeads were further added. After being allowed to stand on ice for 15 minutes, the cell suspension was diluted with MACS Buffer and centrifuged (at room temperature at 300 g for 10 minutes) to remove the supernatant.
MACS Buffer was added to the tube, and the cells were suspended and then applied to a separatory column to separate CD14^+ cells. The CD14^+ cell fraction was diluted with the medium and then centrifuged (at room temperature at 300 g for 10 minutes). The supernatant was removed and the cells were suspended in the medium (1 mL), followed by counting the number of viable cells. The cell suspension adjusted with the medium to 2×10^6 cells/mL was seeded in a 96-well plate (1×10^5 cells/well) and allowed to stand in a CO2 incubator for 1 to 2 hours. […] The cells were then stimulated with LPS (final concentration: 500 ng/mL) for 6 hours at 37° C. and an ATP solution (final concentration: 5 mM) was added thereto, and the 96-well plate was further allowed to stand in a CO2 incubator for 2 hours to collect the culture supernatants.
The collected culture supernatants were quantified for IL-18 using Human IL-18 DuoSet ELISA.

[2] = test system: IL-6, IL-8 and other inflammatory cytokines; conditions: phase I study, LPS loading; cited from earlier work
[3] = test system: acute myeloid leukemia (AML) cell lines; conditions: in vitro system; cited from earlier work
[4] = test system: VEGF production from macrophages; assay: LPS stimulation-induced VEGF production in macrophages; assay type: cell-based, human
Experimental: CD14^+ cells were cultured in 20 ng/mL M-CSF-containing RPMI medium at 37° C. for 5 days to induce differentiation into macrophages (during which the medium was replaced once every two days with fresh 20 ng/mL M-CSF-containing RPMI medium). […] The macrophages were then stimulated with LPS (final concentration: 100 ng/mL) or RPMI medium alone at 37° C. for 3 days, followed by collecting the culture supernatants. The collected culture supernatants were quantified for VEGF using Human VEGF DuoSet ELISA.

| Compound | IC50 [1] [nM] | suppressive effect on IL-18 production ([1]; LPS-pretreated CD14^+ cells, ATP) | elevation of C-reactive protein (CRP) levels [2] | production of IL-6, IL-8 and other inflammatory cytokines [2] | autoproliferation of AML cell lines [3] | IC50 ([4]; Homo sapiens, Macrophage, 72 h, read-out: IC50 value, VEGF) [nM] | effect on VEGF production from macrophages ([4]; Macrophages, LPS) |
| --- | --- | --- | --- | --- | --- | --- | --- |
| C[C@]12C=CC(=O)C=C1CC[C@@H]1[C@@H]2[C@@H](O)C[C@@]2(C)[C@H]1CC[C@]2(O)C(=O)CO [PSL, Prednisolone] | > 30000 | no suppressive effect | – | – | – | – | – |
| CCOC(=O)[C@H](Cc1ccccc1)NC(=O)c1cc(Cl)c(OCCN2CCN(C)CC2)c(Cl)c1O [JTE-607, (−)-ethyl N-{3,5-dichloro-2-hydroxy-4-[2-(4-methylpiperazin-1-yl)ethoxy]benzoyl}-L-phenylalaninate dihydrochloride] | 2.4 | – | suppress the elevation of C-reactive protein (CRP) levels in a dose-dependent manner | suppress the production of IL-6, IL-8 and other inflammatory cytokines | selectively suppress the autoproliferation | 204 | tended to suppress VEGF production from macrophages, but its effect was marginal |
